Counter-ions that a name gives are not always drawn. Like-named read-outs stand apart in the source and are kept apart here.
Legend:
[1] = system: HIV-1 LTR promoter; format: cell-based
[2] = system: latent HIV-1 in JLat 8.6 cells; format: cell-based
[3] = Pharmakon 1600 library, 10 uM, 24 hours, FIG. 10

## NNc1nncc2ccccc12 [V17, hydralazine hydrochloride]
[1]
  identified as variability enhancer (VE) in noise screen: variability enhancers
[2]
  synergy in reactivation of HIV-1 latency: synergized

## Cc1cn[nH]c1 [V27, fomepizole hydrochloride]
[1]; [3]
  identified as variability enhancer (VE) in noise screen: variability enhancers
[2]
  synergy in reactivation of HIV-1 latency: synergized

## CC(C)(CO)[C@@H](O)C(=O)NCCC(=O)[O-].[Na+] [V22, pantothenic acid(d) na salt]
[1]
  identified as variability enhancer (VE) in noise screen: variability enhancers
[2]
  synergy in reactivation of HIV-1 latency: synergized

## CCCCC(CC)COc1ccc(-c2nc(-c3ccc(OC)cc3)nc(-c3ccc(OCC(CC)CCCC)cc3O)n2)c(O)c1 (centres unmarked) [V98, bemotrizinol]
[1]; [3]
  identified as variability enhancer (VE) in noise screen: variability enhancers
[2]
  synergy in reactivation of HIV-1 latency: synergized

## N[C@@H](Cc1ccc(O)c(O)c1)C(=O)O [V78, levodopa]
[1]; [3]
  identified as variability enhancer (VE) in noise screen: variability enhancers
[2]
  synergy in reactivation of HIV-1 latency: synergized

## Cc1cccc(C)c1N=C1NCCCS1 [V29, Xylazine hydrochloride]
[1]; [3]
  identified as variability enhancer (VE) in noise screen: variability enhancers
[2]
  synergy in reactivation of HIV-1 latency: synergized

## CC(=O)OCC(=O)[C@@]1(O)CC[C@H]2[C@@H]3CCC4=CC(=O)CC[C@]4(C)[C@@]3(F)[C@@H](O)C[C@@]21C [V96, fludrocortisone acetate]
[1]
  identified as variability enhancer (VE) in noise screen: variability enhancers
[2]
  synergy in reactivation of HIV-1 latency: synergized

## Cc1cccc(N(C)C(=S)Oc2ccc3ccccc3c2)c1 [V54, tolnaftate]
[1]; [3]
  identified as variability enhancer (VE) in noise screen: variability enhancers
[2]
  synergy in reactivation of HIV-1 latency: synergized

## carboplatin [V71]
[1]; [3]
  identified as variability enhancer (VE) in noise screen: variability enhancers
[2]; with one or more of PMA, prostratin, TNFα, and bryostatin, FIG. 11
  synergy in reactivation of HIV-1 latency: synergized

## CC(C)c1c(C(=O)Nc2ccccc2)c(-c2ccccc2)c(-c2ccc(F)cc2)n1CC[C@@H](O)C[C@@H](O)CC(=O)[O-].CC(C)c1c(C(=O)Nc2ccccc2)c(-c2ccccc2)c(-c2ccc(F)cc2)n1CC[C@@H](O)C[C@@H](O)CC(=O)[O-].[Ca+2] [V20, atorvastatin calcium]
[1]
  identified as variability enhancer (VE) in noise screen: variability enhancers
[2]
  synergy in reactivation of HIV-1 latency: synergized

## CO[C@@]1(NC(=O)Cc2cccs2)C(=O)N2C(C(=O)O)=C(COC(N)=O)CS[C@@H]21 [V46, cefoxitin sodium]
[1]; [3]
  identified as variability enhancer (VE) in noise screen: variability enhancers
[2]
  synergy in reactivation of HIV-1 latency: synergized

## CCC(=O)O[C@]1(C(=O)CCl)[C@@H](C)C[C@H]2[C@@H]3CCC4=CC(=O)C=C[C@]4(C)[C@@]3(F)[C@@H](O)C[C@@]21C [V94, clobetasol propionate]
[1]; [3]
  identified as variability enhancer (VE) in noise screen: variability enhancers
[2]
  synergy in reactivation of HIV-1 latency: synergized

## CCCc1nc(C)c2c(=O)[nH]c(-c3cc(S(=O)(=O)N4CCN(CC)CC4)ccc3OCC)nn12 [V91, vardenafil hydrochloride]
[1]; [3]
  identified as variability enhancer (VE) in noise screen: variability enhancers
[2]
  synergy in reactivation of HIV-1 latency: synergized

## COc1ccc(-c2ccc3cc(C(=O)O)ccc3c2)cc1C12CC3CC(CC(C3)C1)C2 [V36, adapalene]
[1]; [3]
  identified as variability enhancer (VE) in noise screen: variability enhancers
[2]
  synergy in reactivation of HIV-1 latency: synergized

## Cc1ccc(S(=O)(=O)NC(=O)NN2CCCCCC2)cc1 [V51, Tolazamide]
[1]; [3]
  identified as variability enhancer (VE) in noise screen: variability enhancers
[2]
  synergy in reactivation of HIV-1 latency: synergized

## O=c1[nH]c(=O)n(Cl)c(=O)n1Cl [V63, troclosene potassium]
[1]
  identified as variability enhancer (VE) in noise screen: variability enhancers
[2]
  synergy in reactivation of HIV-1 latency: synergized

— patent US10184933B2, “Compositions, systems and methods for gene expression noise drug screening and uses thereof” (priority 2013, dated 2019)
